# According to the supplement of paper PMC4862054:
# Where “and” joins values, the source holds several entries; their conditions need not be identical. Equal entries are not always repeated.
# What was measured:
# Conditions in all cases: incubation time: 72 h
# CAL-85-1 [1] = assay: normalised viability (% of control), CellTiter-Blue; higher = more viable cells (about 100 = DMSO control)
# Experimental: (§1)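 DSRT, CellTiter-Blue viability, 72 h incubation. Signal is normalised to DMSO and benzethonium chloride controls. Value is the normalised response at dose 9.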
# DU-4475 [2] = assay: as above
# Experimental: as §1
# MDA-MB-453 [3] = assay: as above
# Experimental: as §1
# HDQ-P1 [4] = assay: as above
# Experimental: as §1
# CAL-148 [5] = assay: as above
# Experimental: as §1
# CAL-51 [6] = assay: as above
# Experimental: as §1
# BT-549 = assay: normalised response (% of control), CellTiter-Glo; higher = more viable cells (100 = DMSO, 0 = benzethonium chloride kill control)
# Experimental: (§2)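 DSRT, 72 h incubation, CellTox Green / CellTiter-Glo readout. Signal is normalised to DMSO and benzethonium chloride controls. Value is the normalised response at the highest dose.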
# SK-BR-3 = assay: as above
# Experimental: as §2
# CAL-120 = assay: as above
# Experimental: as §2
# DU-4475 [7] = assay: as above
# Experimental: as §2
# BT-474 = assay: as above
# Experimental: as §2
# MDA-MB-436 = assay: as above
# Experimental: as §2
# CAL-51 [8] = assay: as above
# Experimental: as §2
# MDA-MB-468 = assay: as above
# Experimental: as §2
# HCC1599 = assay: as above
# Experimental: as §2
# MFM-223 = assay: as above
# Experimental: as §2
# CAL-85-1 [9] = assay: normalised viability (% of control), CellTiter-Blue; higher = more viable cells (about 100 = DMSO control); remark: listed apart in the source
# Experimental: (§3)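 DSRT, CellTiter-Blue viability, 72 h incubation. Signal is normalised to DMSO and benzethonium chloride controls. Value is the normalised response at dose 7.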
# DU-4475 [10] = assay: as above; remark: listed apart in the source
# Experimental: as §3
# MDA-MB-453 [11] = assay: as above; remark: listed apart in the source
# Experimental: as §3
# HDQ-P1 [12] = assay: as above; remark: listed apart in the source
# Experimental: as §3
# CAL-148 [13] = assay: as above; remark: listed apart in the source
# Experimental: as §3
# CAL-51 [14] = assay: as above; remark: listed apart in the source
# Experimental: as §3
structure (smiles),measurement,setting,value
Nc1ccn([C@@H]2O[C@H](CO)[C@@H](O)C2(F)F)c(=O)n1 [Gemcitabine] (1000 nM),normalised viability,CAL-85-1 [1],5.03%
same,normalised viability,DU-4475 [2],11.2%
same,normalised viability,MDA-MB-453 [3],1.2%
same,normalised viability,HDQ-P1 [4],100%
same,normalised viability,CAL-148 [5],0.25%
same,normalised viability,CAL-51 [6],7.26%
same,normalised response,BT-549,44.7%
same,normalised response,SK-BR-3,42.7%
same,normalised response,CAL-120,73%
same,normalised response,DU-4475 [7],78.5%
same,normalised response,BT-474,74.2%
same,normalised response,MDA-MB-436,30.7%
same,normalised response,CAL-51 [8],34%
same,normalised response,MDA-MB-468,22.1%
same,normalised response,HCC1599,41.4%
same,normalised response,MFM-223,97.7%
CC(O)(CS(=O)(=O)c1ccc(F)cc1)C(=O)Nc1ccc(C#N)c(C(F)(F)F)c1 (stereo unspecified) [Bicalutamide] (1000 nM),normalised viability,CAL-85-1 [9],91.1%
same,normalised viability,DU-4475 [10],90.1%
same,normalised viability,MDA-MB-453 [11],102%
same,normalised viability,HDQ-P1 [12],91.4%
same,normalised viability,CAL-148 [13],102%
same,normalised viability,CAL-51 [14],108%
Cc1cn(-c2cc(NC(=O)c3ccc(C)c(Nc4nccc(-c5cccnc5)n4)c3)cc(C(F)(F)F)c2)cn1 [Nilotinib] (10000 nM),normalised viability,CAL-85-1 [1],86.3% and 84.9%
same,normalised viability,DU-4475 [2],102% and 86.8%
same,normalised viability,MDA-MB-453 [3],106% and 94.7%
same,normalised viability,HDQ-P1 [4],84.2% and 86.2%
same,normalised viability,CAL-148 [5],89.7% and 84.6%
same,normalised viability,CAL-51 [6],103% and 100%
same,normalised response,BT-549,61.2%
same,normalised response,SK-BR-3,99.4%
same,normalised response,CAL-120,103%
same,normalised response,DU-4475 [7],102%
same,normalised response,BT-474,94.7%
same,normalised response,MDA-MB-436,106%
same,normalised response,CAL-51 [8],86.3%
same,normalised response,MDA-MB-468,101%
same,normalised response,HCC1599,119%
same,normalised response,MFM-223,97.2%
C/C(=C\c1csc(C)n1)[C@@H]1C[C@@H]2O[C@]2(C)CCC[C@H](C)[C@H](O)[C@@H](C)C(=O)C(C)(C)[C@@H](O)CC(=O)N1 [Ixabepilone] (100 nM),normalised viability,CAL-85-1 [9],80.5%
same,normalised viability,DU-4475 [10],93.7%
same,normalised viability,MDA-MB-453 [11],78.5%
same,normalised viability,HDQ-P1 [12],78.1%
same,normalised viability,CAL-148 [13],86.5%
same,normalised viability,CAL-51 [14],108%
Cc1cc(Nc2nc(N[C@@H](C)c3ncc(F)cn3)ncc2Cl)[nH]n1 [AZD1480] (100 nM),normalised viability,CAL-85-1 [9],82.2%
same,normalised viability,DU-4475 [10],93.2%
same,normalised viability,MDA-MB-453 [11],105%
same,normalised viability,HDQ-P1 [12],98.6%
same,normalised viability,CAL-148 [13],105%
same,normalised viability,CAL-51 [14],108%
C=CCn1c(=O)c2cnc(Nc3ccc(N4CCN(C)CC4)cc3)nc2n1-c1cccc(C(C)(C)O)n1 [MK1775] (10000 nM),normalised viability,CAL-85-1 [1],17.4%
same,normalised viability,DU-4475 [2],2.68%
same,normalised viability,MDA-MB-453 [3],15.2%
same,normalised viability,HDQ-P1 [4],16%
same,normalised viability,CAL-148 [5],5.88%
same,normalised viability,CAL-51 [6],2.98%
same,normalised response,BT-549,6.99%
same,normalised response,SK-BR-3,8.92%
same,normalised response,CAL-120,22.8%
same,normalised response,DU-4475 [7],11.9%
same,normalised response,BT-474,29.4%
same,normalised response,MDA-MB-436,15.8%
same,normalised response,CAL-51 [8],8.21%
same,normalised response,MDA-MB-468,6.6%
same,normalised response,HCC1599,4.65%
same,normalised response,MFM-223,36.1%
CC(=O)[C@]1(O)Cc2c(O)c3c(c(O)c2[C@@H](O[C@H]2C[C@H](N)[C@H](O)[C@H](C)O2)C1)C(=O)c1ccccc1C3=O [Idarubicin] (100 nM),normalised viability,CAL-85-1 [9],75.7%
same,normalised viability,DU-4475 [10],27.7%
same,normalised viability,MDA-MB-453 [11],79.4%
same,normalised viability,HDQ-P1 [12],78.3%
same,normalised viability,CAL-148 [13],11.3%
same,normalised viability,CAL-51 [14],28%
COc1cc(Nc2c(C#N)cnc3cc(OCCCN4CCN(C)CC4)c(OC)cc23)c(Cl)cc1Cl [Bosutinib] (1000 nM),normalised viability,CAL-85-1 [9],81.9%
same,normalised viability,DU-4475 [10],109%
same,normalised viability,MDA-MB-453 [11],80.3%
same,normalised viability,HDQ-P1 [12],89.2%
same,normalised viability,CAL-148 [13],72%
same,normalised viability,CAL-51 [14],109%
CCNC(=O)CCC/C=C\C[C@@H]1[C@@H](/C=C/[C@@H](O)CCc2ccccc2)[C@H](O)C[C@@H]1O [Bimatoprost] (550 nM),normalised viability,CAL-85-1 [9],94.2%
same,normalised viability,DU-4475 [10],104%
same,normalised viability,MDA-MB-453 [11],91.1%
same,normalised viability,HDQ-P1 [12],93.3%
same,normalised viability,CAL-148 [13],95.9%
same,normalised viability,CAL-51 [14],118%
CNC(=O)c1ccccc1Sc1ccc2c(/C=C/c3ccccn3)n[nH]c2c1 [Axitinib] (1000 nM),normalised viability,CAL-85-1 [9],76.9%
same,normalised viability,DU-4475 [10],109%
same,normalised viability,MDA-MB-453 [11],60.4%
same,normalised viability,HDQ-P1 [12],76.8%
same,normalised viability,CAL-148 [13],97.5%
same,normalised viability,CAL-51 [14],88.7%
CC1(C)CCC(c2ccc(Cl)cc2)=C(CN2CCN(c3ccc(C(=O)NS(=O)(=O)c4ccc(N[C@H](CCN5CCOCC5)CSc5ccccc5)c(S(=O)(=O)C(F)(F)F)c4)cc3)CC2)C1 [Navitoclax] (10000 nM),normalised viability,CAL-85-1 [1],71.3%
same,normalised viability,DU-4475 [2],4.02%
same,normalised viability,MDA-MB-453 [3],52.7%
same,normalised viability,HDQ-P1 [4],60.2%
same,normalised viability,CAL-148 [5],66.7%
same,normalised viability,CAL-51 [6],77%
same,normalised response,BT-549,86.7%
same,normalised response,SK-BR-3,73.2%
same,normalised response,CAL-120,37.4%
same,normalised response,DU-4475 [7],72.4%
same,normalised response,BT-474,23.5%
same,normalised response,MDA-MB-436,90.7%
same,normalised response,CAL-51 [8],74.5%
same,normalised response,MDA-MB-468,78%
same,normalised response,HCC1599,93.1%
same,normalised response,MFM-223,55.6%
